Structures can show the parent of a compound that is named as a salt. Where two headings read alike, the source gives them in different places.
Key:
[1] = Hepatic phospholipids in rats after intoxication with CCl4; type: in vivo, rat; conditions: for Total phospholipids: average ± E.S. of 10 values
Excerpt: This was confirmed by successive pharmacological tests. […] Hepatic phospholipids in rats after intoxication with CCl4 and treatment with SAM.

[2] = dry state
Excerpt: (§3) The figures refer to the percentage of SAM residue after the times indicated:

[3] = Clinical: Parkinsons disease and Parkinsonisms, in association with Levodopa; type: in vivo, human
[4] = Acute toxicity (DL50) in the mouse; conditions: in vivo
Excerpt: In particular, the DL50 in the mouse is greater than 6 g/kg/os and 2.5 g/kg/i.p.

[5] = Toxicity, overall statement; conditions: in vivo
[6] = physchem; type: physicochemical
[7] = system: rabbits; conditions: rabbit, in vivo
[8] = system: rats; conditions: rat, in vivo
[9] = system: rabbit; experiment: Local tolerability of intermuscular and intravenous injection; type: in vivo
[10] = system: man; experiment: Tolerability in young volunteer healthy subjects (pressure, pulse, respiration, ECG, hemopoietic, hepatic and renal); type: in vivo
[11] = rat, in vivo, 10 mg/kg
Procedure: (§1) Sam^+.hso4^-.h2 so4 .2 ch3 c6 h4 so3 h and/or SAM^+.HSO4^-.H2 SO4.CH3 C6 H4 SO3 H. In order to indicatively determine how SAM is distributed in the tissues, S-Adenosilmethionine (Methyl C^14) was prepared. The distribution of this product in rats was studied by administering a dose of 10 mg/kg/e.v. equal to 24 μci of radioactive product. The specific activity of the product was 58 mCi/m moles. Parallel to this, an autoradiographic study was made on the mouse.
Distribution of SAM in some rat tissues.
The values are expressed as μgr/gr.

[12] = mouse, in vivo
Procedure: as §1

[13] = Hepatic steatosis in rats (Handler diet, acute alcoholic intoxication, carbon tetrachloride, bromobenzene); type: in vivo, rat
Excerpt: This was confirmed by successive pharmacological tests.

[14] = Hepatic cholesterol degeneration in the rat (Ridout diet); type: in vivo; conditions: 3 weeks; for Fresh liver weight: cholesterol diet
Procedure: In studying the hepatoprotective activity we have used an experimental device which produces in the rat the so-called hepatic cholesterol degeneration (Ridout and Coll., Biochem. J. 52, 99, 1952).
In this method, by means of a suitable diet, a conspicuous increase in the total hepatic fats and hepatic cholesterol are obtained in the animals. The substances which act in the lipidic metabolism reduce or annul this increase.
The animals were divided into six groups. The first group was administered with a diet which was varied at will. The second group was administered with the basic diet of Ridout (20 g per rat per day); the other groups were administered with the same diet in the same doses but enriched with cholesterol to the extent of 0.2 g/rat/day. The treatment lasted 3 weeks.
The groups 4,5,6 were administered with SAM in the following doses: 1,2,5 mg/kg/i.p. per day.
At the end of 3 weeks all the animals were killed, the livers were withdrawn and the total fats (Best and Coll., Biochem. J. 40, 368, […]) and cholesterol (Sperry and Brand, J. Biol. Chem. 150, 315, 1943) were determined.

[15] = Edema by carragenine (acute inflammation); type: in vivo; conditions: orally 20-100 mg/kg and parenterally 10-20 mg/kg
Excerpt: (§2) Ot the various tests we shall mention the most classic, namely the edema by carragenine and by egg white as a test for acute inflammation; and granuloma by cotton […] arthritis by adjuvant as a test for chronic inflammation. […] The analgesia tests were in the form of the hot plate tests and stretching by acetic acid, and the Randal and Drlitto tests in the rat.

[16] = Edema by egg white (acute inflammation); type: in vivo; conditions: orally 20-100 mg/kg and parenterally 10-20 mg/kg
Excerpt: as §2

[17] = Granuloma by cotton peelets (chronic inflammation); type: in vivo; conditions: orally 20-100 mg/kg and parenterally 10-20 mg/kg
Excerpt: as §2

[18] = Arthritis by adjuvant (chronic inflammation); type: in vivo; conditions: orally 20-100 mg/kg and parenterally 10-20 mg/kg
Excerpt: as §2

[19] = Hot plate test (analgesia); conditions: rat, in vivo
Excerpt: as §2

[20] = Stretching by acetic acid (analgesia); conditions: rat, in vivo
Excerpt: as §2

[21] = Randal and Drlitto test (analgesia); type: in vivo; conditions: rat
Excerpt: as §2

[22] = Hexobarbital sleeping time in mice; type: in vivo, mouse
Procedure: A further aspect considered by us was the possible action of SAM on the sleeping time by barbiturates. For this purpose an experiment was made in which groups of mice received hexobarbital in a dose of 80 mg/kg/i.p. in accordance with the method of Holten and Larsen (Acta Pharmacol. […] (table).

[23] = Clinical: metabolism of lipids (hepatosteatosis, hyperdislipidemia); type: in vivo, human
Excerpt: Following the information gained from the pharmacological tests, the clinical tests were orientated on morbid affections in which the following appear primitively or secondarily altered: […]

[24] = Clinical: arteriosclerosis, hypoxydotic states, post-apoplectic syndromes; type: in vivo, human
[25] = Clinical: hypoprotidemias, disprotidemias, hepatopathias, cyrrotic states, malabsorption; type: in vivo, human; conditions: 20-200 mg per day
Procedure: 2. Hundreds of subjects were treated clinically affected with: secondary hypoprotidemias and disprotidemias; persistent and aggressive cronic hepatopathias; precyrrotic and cyrrotic states; malabsorption syndromes, protide dispersing syndromes.

[26] = Clinical: depressive forms (tests of Hamilton and Wittenberg); type: in vivo, human; conditions: 20-50 mg 3-4 times per day, 5-15 days, no other therapy
[27] = type: in vivo, human
[28] = Clinical: antalgic activity in neurological frameworks and cephalalgia; type: in vivo, human
Procedure: The antalgic activity of SAM was also tested in different subjects with different neurological frameworks: neuritis, polyneuritis, anthralgia, sciatica, radiocolitis, torticollis.

[29] = Clinical: disturbances of the sleeping-waking rhythm; type: in vivo, human; conditions: 10-30 mg orally, insomnia
[30] = system: rabbit; conditions: in vivo, 40 mg/kg
[31] = system: cat; conditions: in vivo, 40 mg/kg
[32] = physchem; conditions: dry state, percentage of SAM residue
Excerpt: as §3

[33] = Stability with time at 45°C, dry state (percentage of SAM residue); conditions: same conditions as Table 1
Excerpt: as §3

[34] = hyperdislipidemia in the uncompensated stage
[35] = intermuscular, intravenous or oral

## C[S+](CC[C@H](N)C(=O)[O-])C[C@H]1O[C@@H](n2cnc3c(N)ncnc32)[C@H](O)[C@@H]1O (stereo partly drawn) [Ad-Met, reference compound]
[1]; CCl4 + Ad-Met 15 mg/kg/i.p.
  Total phospholipids: 19.9 ± 0.92 mg/g

## C[S+](CC[C@H](N)C(=O)O)C[C@H]1O[C@@H](n2cnc3c(N)ncnc32)[C@H](O)[C@@H]1O (stereo partly drawn) [Chloride]
[2]; 720 h
  percentage of SAM residue: 20%

## N[C@@H](Cc1ccc(O)c(O)c1)C(=O)O [Levodopa, reference compound]
[3]; Levodopa alone
  Parkinson tremor: cannot be modified

## C[S+](CC[C@H](N)C(=O)O)C[C@H]1O[C@@H](n2cnc3c(N)ncnc32)[C@H](O)[C@@H]1O (stereo partly drawn) [SAM salt]
[4]; ip
  LD50: > 2500 mg/kg
[4]; po, os
  LD50: > 6000 mg/kg
[5]
  toxicity: absolutely free from acute toxicity, chronic toxicity, local intolerance or secondary effects

## C[S+](CC[C@H](N)C(=O)O)C[C@H]1O[C@@H](n2cnc3c(N)ncnc32)[C@H](O)[C@@H]1O (stereo partly drawn) [SAM, SAM disulphate di-p-toluenesulphonate]
[6]; crystalline salt
  hygroscopicity: not very hygroscopic
[6]; water
  solubility: > 200 mg/mL
[7]
  tetratogenic actions or malformations: no tetratogenic actions were encountered or any malformations in the embryons or terminal feti
[8]
  tetratogenic actions or malformations: no tetratogenic actions were encountered or any malformations in the embryons or terminal feti
[9]; intermuscular injection, repeated over 180 days
  local tolerability: excellent
[9]; intravenous, marginal vein of the auricular pavillon, rabbit
  local tolerability: excellent
[10]; 30" to 20' from administration
  electrocardiograph trace (PQ interval, ST section, extrasistol): does not show any variations
[10]; man
  hemopoietic apparatus, hepatic and renal operation: no variations which were statistically significant from normal
[10]; rapid intravenous or phleboclysis, 10-300 mg, 1 minute to 24 hours
  minimum and maximum pressure, pulse and respiratory frequency: does not show any variation from normal values
[11]
  distribution to the tissues: distributed very rapidly to all the tissues
[12]
  distribution to the tissues: distributed very rapidly to all the tissues
[13]
  accumulation of lipids at the hepatocite level: significantly reduced the accumulation of lipids
[1]; CCl4 + SAM 15 mg/kg/i.p.
  Total phospholipids: 27.20 ± 1.25 mg/g
[1]; CCl4 + SAM 150 mg/kg/i.p.
  Total phospholipids: 20.87 ± 0.42 mg/g
[1]; rats, CCl4
  levels of phospholipids reduced after intoxication with CCl4: favours the restoration of normal levels of phospholipids
[14]; 5 mg/kg
  protection from hepatic cholesterol degeneration: completely protected
[14]; 1-2 mg/kg/i.p.
  protection from hepatic cholesterol degeneration: poorly protected
[14]; Batch IV, SAM 1 mg/kg/i.p. per day
  Fresh liver weight: 17 g
[14]; Batch V, SAM 2 mg/kg/i.p. per day
  Fresh liver weight: 16 g
[14]; Batch VI, SAM 5 mg/kg/i.p. per day
  Fresh liver weight: 16 g
[15]
  antiinflammatory activity, edema by carragenine: active
[16]
  antiinflammatory activity, edema by egg white: active
[17]
  antiinflammatory activity, granuloma by cotton peelets: active
[18]
  antiinflammatory activity, arthritis by adjuvant: active
[19]
  analgesic activity, hot plate: active
[20]
  analgesic activity, stretching by acetic acid: active
[21]
  analgesic activity, Randal and Drlitto test: active
[22]; 10 mg/kg/i.p.
  prolonging the sleeping time induced by hexobarbital: active in prolonging the sleeping time
[22]; SAM 10 mg/kg/i.p., hexobarbital 80 mg/kg/i.p.
  Sleeping time: 41.2 ± 5.8 min
[23]; about 20-30 mg administered 2-3 times per day
  hypocholesterolemising and hypolipemising action: proportional to the dose
[23]; bioptic examination, even after 60 days from the end of treatment
  hepatic lipids in hepatosteatosis: rapid fall in the hepatic lipids
[23]; [34]
  altered β/α lipoproteic ratios: normalises the altered β/α lipoproteic ratios
  total cholesterolemia and hypertriglyceridemia: marked fall
[24]; hypoxydotic states
  recovery of functions in clear hypoxydotic states: very quick and statistically significant
[24]; intramuscular, intravenous or phleboclysis, 20-40 mg 3-4 times per day
  symptomatology of arteriosclerosis: very favourable modification of the sumptomatology
[24]; post-apoplectic syndromes
  improvement of the clinical framework in post-apoplectic syndromes: greater rapidity was found in the improvement of the clinical framework
[25]
  subjective symptomology and general objective conditions: often very important improvement
  tests of hepatic functionality: normalizing of all the tests of hepatic functionality
[25]; [35]
  albumin amount: an increase in the albumin amount
  altered percentage ratios between the electrophoretic fractions of the serum: tendency to normalise
  total protidemia: statistically significant increase
[26]
  remission of the main parameters for the diagnosis of depressive forms: significant remission
[3]; 10-40 mg per day with Levodopa
  Parkinson tremor: favourable modifications
[3]; 10-40 mg per day with Levodopa, versus Levodopa only
  akinesia and rigidity: statistically more significant improvement
[3]; 10-40 mg per day with Levodopa, nausea, vomit, inappetite, hypotension, asthenia, cephalea, hypersudoration, insomnia
  Levodopa side effects: significantly blocks
[3]; with Levodopa
  Levodopa-dependent psychic disturbances: distinctly improves
[27]; 30 mg twice a day i.m. or i.v., and 30-50 mg orally 4 times per day
  activity in osteoarthritic forms: active in all osteoarthritic forms treated
[27]; after 7 days of treatment, versus placebo
  muscular spasm, limitation of movement, localised pain, rigidity: influenced in a statistically significant manner
[27]; double blind study
  therapeutic efficiency compared with indomethacin: equal to indomethacin
[27]; human, in vivo
  concealed blood in the feces: never showed any modification
  gastric pyrosis: No case
[28]; 15 mg twice a day intermuscular or 30-50 mg 3-4 times per day orally
  antalgic effect in neurological frameworks: available and efficient from the first day of administration
[28]; orally in masticable tablets
  recurring and resistant cephalalgia: Analogous results
[29]
  altered sleeping-waking ratios: considerably improve
[2]; 720 h
  percentage of SAM residue: 100.1%
[2]; 1440 h
  percentage of SAM residue: 99.9%
[30]
  change in carotid pressure, cardiac and respiratory frequency or electrocardiac trace: does not cause any change
[31]
  change in carotid pressure, cardiac and respiratory frequency or electrocardiac trace: does not cause any change
[32]
  remaining at 2880 h: 100%
  remaining at 4320 h: 100%

## C[S+](CC[C@H](N)C(=O)O)C[C@H]1O[C@@H](n2cnc3c(N)ncnc32)[C@H](O)[C@@H]1O (stereo partly drawn) [Sulphate]
[2]; 720 h
  percentage of SAM residue: 50%
[2]; 1440 h
  percentage of SAM residue: 5%

## C[S+](CC[C@H](N)C(=O)O)C[C@H]1O[C@@H](n2cnc3c(N)ncnc32)[C@H](O)[C@@H]1O.Cc1ccc(S(=O)(=O)O)cc1.O=S(=O)(O)O.O=S(=O)([O-])O (stereo partly drawn) [di-sulphate mono-p.toluenesulphonate]
[33]
  stability values compared with di-sulphate di-p.toluenesulphonate: completely equivalent
